Test [1] has as its target T1, 14-3-3 protein sigma (Homo sapiens) (UniProt P31947).
T1 sequence (whole entry): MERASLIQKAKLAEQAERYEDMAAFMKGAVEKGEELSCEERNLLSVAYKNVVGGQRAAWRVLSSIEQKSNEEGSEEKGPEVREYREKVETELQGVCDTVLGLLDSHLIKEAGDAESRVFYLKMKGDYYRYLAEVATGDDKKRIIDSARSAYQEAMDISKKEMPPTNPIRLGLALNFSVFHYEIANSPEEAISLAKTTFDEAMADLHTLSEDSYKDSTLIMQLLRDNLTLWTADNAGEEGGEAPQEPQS
Description: Inhibition of 14-3-3sigma binding domain in human Ba/F3 cells expressing imatibib-sensitive wild type Bcr-Abl construct assessed as inhibition of 14-3-3sigma-c-Abl interaction. It counts as cell-based. To be noted: BaF3.

In test [2] the target is T1, 14-3-3 protein sigma (Homo sapiens). Description: Inhibition of 14-3-3sigma in human Ba/F3 cells expressing imatinib-sensitive wild type Bcr-Abl construct assessed as cell survival. It counts as cell-based. The conditions noted are these: BaF3.
Test [3] addresses T2, 14-3-3 protein sigma (Mus musculus) (UniProt O70456).
T2 sequence (whole entry): T1 sequence (whole entry) with G28S, R82K, Q93R, E110G, N234S, Q244E
Description: Inhibition of 14-3-3sigma in mouse 32D cells expressing imatinib-sensitive wild type Bcr-Abl construct assessed as cell survival. It is filed as cell-based.

The target of test [4] is T1, 14-3-3 protein sigma (Homo sapiens). The conditions noted are these: BaF3, 1 uM.
Description: Inhibition of 14-3-3sigma in human Ba/F3 cells expressing wild type Bcr-Abl construct assessed as release of full-length c-Abl from cytoplasmic complex with 14-3-3sigma at 1 uM after 24 hrs by immunoprecipitation/immunoblot technique
Test [5] has the same target. Description: Inhibition of 14-3-3sigma binding domain in human Ba/F3 cells expressing imatibib-resistant Bcr-Abl T315I mutant construct assessed as inhibition of 14-3-3sigma-c-Abl interaction. It is filed as cell-based. The conditions noted are these: BaF3.
In another test the target is T3, 14-3-3 protein sigma (Homo sapiens, UniProt P31947).
T3 sequence (P31947 whole entry): T1 sequence (whole entry)
Description: Binding affinity to histidine-tagged human recombinant 14-3-3sigma by transferred NOESY analysis.

Test [6] has as its target T1, 14-3-3 protein sigma (Homo sapiens). Description: Inhibition of 14-3-3sigma in human Ba/F3 cells expressing imatinib-sensitive wild type Bcr-Abl construct assessed as release of full-length c-Abl from cytoplasmic complex with 14-3-3sigma at 5 uM after 24 hrs by immunoprecipitation/immunoblot technique. It counts as cell-based. The conditions noted are these: BaF3. For orientation: Immunoblotting shows a protein as a band on a membrane.

Test [7] shares this target. In words: Inhibition of 14-3-3sigma in human Ba/F3 cells expressing imatinib-sensitive wild type Bcr-Abl construct assessed as nuclear import of full-length c-Abl at 5 uM after 24 hrs by immunoprecipitation/immunoblot technique. It is filed as cell-based. The conditions noted are these: BaF3.
Test [8] shares this target. In words: Inhibition of 14-3-3sigma in human Ba/F3 cells expressing imatinib-sensitive wild type Bcr-Abl construct assessed as relocation of full-length c-Abl to mitochondrial membranes at 5 uM after 24 hrs by immunoprecipitation/immunoblot technique. It counts as cell-based. The conditions noted are these: BaF3.
The target is the same in test [9]. In words: Inhibition of 14-3-3sigma in human Ba/F3 cells expressing imatinib-sensitive wild type Bcr-Abl construct assessed as cleaved c-Abl at mitochondrial membranes at 5 uM after 24 hrs by immunoprecipitation/immunoblot technique. It is filed as cell-based. To be noted: BaF3.

Residue numbers refer to the chain shown, from its start. Active and inactive are the calls of the source. The calls are words filed in the database; no cut-off is given here.

For the compound `Cc1ccc(-c2cc(-c3ccccc3)nc(N/N=C/c3cc([N+](=O)[O-])ccc3O)n2)cc1`, the LD50 is 0.65 µM in [1], 0.65 µM in test [2] and 2.84 µM in test [3].
Regarding `Cc1ccc(NC(=O)c2ccc(CN3CCN(C)CC3)cc2)cc1Nc1nccc(-c2cccnc2)n1`, the inhibition entry in [4] was “Active”.
As for `Cc1c(NC(=O)c2cc(C(=O)O)ccc2C(=O)O)c(=O)n(-c2ccccc2)n1C`, the LD50 in test [1] is 1.04 µM; in test [5], 1.47 µM.
By Kd is commonly meant the concentration at which binding is half-saturated. As to `CCCCCCOC(=O)c1ccc(Nc2c([N+](=O)[O-])cc(C(=O)O)cc2[N+](=O)[O-])cc1`, the Kd on 14-3-3 protein sigma is greater than 1 µM. Further, the LD50 in test [1] worked out at 1.41 µM; in test [5] it was 1.7 µM. Also, the inhibition result in test [6], in test [7], in test [8] and in test [9] was “Active” in each case.

(Values after ChEMBL document CHEMBL1909530, “Computational techniques are valuable tools for the discovery of protein-protein interaction inhibitors: the 14-3-3σ case” (Bioorg Med Chem Lett, 2011).)
